Source: publication PMC7580722, “Design of new disubstituted imidazo[1,2-b]pyridazine derivatives as selective Haspin inhibitors. Synthesis, binding mode and anticancer biological evaluation” (Journal of Enzyme Inhibition and Medicinal Chemistry, 2020)
Where two headings read alike, the source gives them in different places. Blank lines part the entries; values can stand above or below the compound they belong to.

What was measured:
SH-SY5Y = assay: Cell viability, monolayer (2D), MTS assay; assay type: cell-based; details: Homo sapiens, 48 h
U-2 OS = assay: Cell viability, monolayer (2D), MTS assay; assay type: cell-based; details: Homo sapiens, U2OS, 48 h
Haspin = biological target: T1, Haspin (Homo sapiens, UniProt Q8TF76); assay: ATP competition assay on Haspin kinase activity; assay type: biochemical
T1 construct: aa470-798; made in house; host or cells: E. coli
Procedure: We first conducted an ATP competition assay with compound 12 on Haspin kinase activity (Figure 3(A)). We tested an ATP concentration range from 5 to 240 µM on compound 12 concentrations ranging from 0.001 to 10 µm.
Figure 3. Binding mode of selected compounds with Haspin. (A) ATP competition assay with compound 12. (B) Crystal structure of Haspin with compound 12. […] (C) Superimposition of the binding mode of compounds 12 (yellow carbon atoms) and 21 (grey carbon atoms) in Haspin active site. The three-letter amino acid code and residue number are labelled next to each side chain.

HsPLK1 = biological target: T2, HsPLK1 (Homo sapiens, UniProt P53350); assay: PLK1 kinase assay; assay type: biochemical; details: Table 4
T2 construct: purchased ProQinase
T2 sequence (P53350 whole entry): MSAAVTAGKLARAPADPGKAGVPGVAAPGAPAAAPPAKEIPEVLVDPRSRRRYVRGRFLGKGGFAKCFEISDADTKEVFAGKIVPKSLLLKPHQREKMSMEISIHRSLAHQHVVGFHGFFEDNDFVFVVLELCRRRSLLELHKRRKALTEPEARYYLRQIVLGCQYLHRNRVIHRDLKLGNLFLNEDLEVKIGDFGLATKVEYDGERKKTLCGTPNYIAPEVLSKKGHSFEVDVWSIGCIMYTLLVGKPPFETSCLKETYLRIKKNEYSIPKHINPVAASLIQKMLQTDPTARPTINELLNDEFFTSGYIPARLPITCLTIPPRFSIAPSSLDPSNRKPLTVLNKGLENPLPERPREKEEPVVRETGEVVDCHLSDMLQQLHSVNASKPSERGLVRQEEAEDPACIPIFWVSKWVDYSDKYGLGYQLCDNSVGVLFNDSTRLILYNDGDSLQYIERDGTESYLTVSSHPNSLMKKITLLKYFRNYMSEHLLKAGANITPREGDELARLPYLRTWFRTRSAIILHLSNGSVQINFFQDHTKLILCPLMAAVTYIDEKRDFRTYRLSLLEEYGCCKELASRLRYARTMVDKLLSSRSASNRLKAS
Procedure: . We therefore tested our compounds on two obvious candidates, HsCDK1 and HsPLK1 (Polo-like_kinase 1) both required for mitotic entry[50] (Table 4).
(§1) Values are IC50 expressed in µM and calculated from dose–response curves (each point from the curves was performed in duplicate). NR: not relevant. […]
(§2) Recombinant protein kinases were expressed and purified from E. coli (HsHaspin kinase domain aa470-798, HsCdk5/p25, RnDYRK1A kinase domain aa1-499, HsPIM1, MmCLK1) or baculovirus/Sf9 cells (HsCdk2/Cyclin A, HsCdk9/Cyclin T). Native SscCK1δ /ε and SscGSK3α/β were purified from pig brain whereas HsPlk1, HsCdk1 and HsAurora B were purchased from ProQinase and SignalChem respectively. Kinase assays were performed in specific buffers and substrates for each kinase tested in the presence of 15 µM [γ-33P] ATP (3,000 Ci/mmol, 10 mCi/ml; PerkinElmer) in a final volume of 30 µl as previously reported 51. After 30 min incubation at 30°C, the reaction mix was spotted onto GE healthcare P81 phosphocellulose paper using a FilterMate Harvester (PerkinElmer), and the filter was extensively washed with a 1% phosphoric acid solution. The wet filter-bound radioactivity was determined in the presence of 20 µl scintillation fluid (GE healthcare) with a TopCount® Scintillation and Luminescence Counter (PerkinElmer). IC50 values were calculated from dose-response curves

RPE-1 = assay: Cell viability, monolayer (2D), MTS assay; assay type: cell-based; details: Homo sapiens, 48 h
HCT116 = assay: Cell viability, monolayer (2D), MTS assay; assay type: cell-based; details: Homo sapiens, HCT-116, 48 h
HsAurora B = biological target: T3, HsAurora B (Homo sapiens, UniProt Q96GD4); assay: Aurora B kinase assay; assay type: biochemical
T3 construct: purchased SignalChem
T3 sequence (Q96GD4 whole entry): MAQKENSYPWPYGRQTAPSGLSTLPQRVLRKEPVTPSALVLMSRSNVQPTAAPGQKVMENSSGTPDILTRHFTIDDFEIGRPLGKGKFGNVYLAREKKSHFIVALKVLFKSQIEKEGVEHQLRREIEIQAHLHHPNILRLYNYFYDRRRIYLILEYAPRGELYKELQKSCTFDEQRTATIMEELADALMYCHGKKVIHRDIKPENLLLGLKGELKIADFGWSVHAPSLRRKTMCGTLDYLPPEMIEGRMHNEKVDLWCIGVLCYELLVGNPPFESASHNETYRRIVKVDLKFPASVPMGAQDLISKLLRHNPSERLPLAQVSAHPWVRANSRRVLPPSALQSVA
Procedure: (§3) Values are IC50 expressed in µM and calculated from dose–response curves (each point on the curves was performed in triplicate). Selectivity indexes (SI; in brackets) are calculated as follows: SI = IC50 kinase X/IC50 Haspin. ND: not determined. *IC50 values obtained using the ADP-Glo methodology (see Experimental section, Supplementary Material). […]
as §2, with “curves […]” for “curves”
(§4) Kinase activities using the ADP-Glo methodology (ADP-Glo Kinase Assay; Promega) were assayed according to the assay described in Nguyen et al. 52 and Ibrahim et al. 53. […]

U-2 OS cells [1] = assay: Cell cycle analysis by flow cytometry (propidium iodide); details: for cells in S phase (% of cell total population): DMSO control 51.9%
Procedure: Figure 6. […] DNA content was measured by flow cytometry and representative profiles are shown. (B) quantification of the proportion of cells in each phase of the cell cycle from the experiment described in (A). Results are mean percentage (n = 3 independent experiments).
Cellular evaluation methods
All media were supplemented with 10% fetal calf serum (unless overwise specified) and 2 mM L-glutamine and cells were cultured
F68-pluronic acid. Cells were fixed for 2h in ice-cold ethanol, then washed twice in PBS containing 0.1% F68-pluronic acid, centrifuged at 200 g and resuspended in a PBS buffer containing 1% Triton, 100 µg/ml RNase A (Thermo Scientific) and 40 µg/ml propidium iodide (Life Technologies). DNA content was determined using a FACS Canto II (BD) and the data were analyzed using FCS Express Cytometry software (De Novo Software).
Twenty thousand events were collected in each run.

HsCDK1 = biological target: T4, HsCDK1 (Homo sapiens, UniProt P06493); assay: CDK1 kinase assay; assay type: biochemical
T4 construct: purchased ProQinase
T4 sequence (P06493 whole entry): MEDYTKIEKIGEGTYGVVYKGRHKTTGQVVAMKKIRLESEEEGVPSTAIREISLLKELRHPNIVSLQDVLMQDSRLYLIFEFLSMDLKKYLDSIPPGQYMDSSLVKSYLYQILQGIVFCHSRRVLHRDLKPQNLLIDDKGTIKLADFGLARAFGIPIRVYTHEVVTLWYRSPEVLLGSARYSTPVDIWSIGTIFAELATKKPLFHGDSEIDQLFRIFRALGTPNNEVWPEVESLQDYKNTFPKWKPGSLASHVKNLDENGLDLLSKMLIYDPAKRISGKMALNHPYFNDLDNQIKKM
T4 sequence (P14635 whole entry partner): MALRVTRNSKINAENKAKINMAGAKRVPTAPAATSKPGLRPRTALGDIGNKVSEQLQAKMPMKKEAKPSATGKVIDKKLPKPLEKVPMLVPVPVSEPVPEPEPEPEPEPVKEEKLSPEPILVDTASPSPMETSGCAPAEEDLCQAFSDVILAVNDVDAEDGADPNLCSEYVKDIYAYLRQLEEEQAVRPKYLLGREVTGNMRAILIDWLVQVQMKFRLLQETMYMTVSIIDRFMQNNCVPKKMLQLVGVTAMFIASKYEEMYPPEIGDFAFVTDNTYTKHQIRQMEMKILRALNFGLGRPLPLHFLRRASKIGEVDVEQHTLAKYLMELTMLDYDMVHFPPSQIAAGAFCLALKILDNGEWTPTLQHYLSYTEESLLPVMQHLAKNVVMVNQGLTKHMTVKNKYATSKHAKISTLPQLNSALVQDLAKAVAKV
Procedure: We therefore tested our compounds on two obvious candidates, HsCDK1 and HsPLK1 (Polo-like_kinase 1) both required for mitotic entry[50]
as §1, §2

U-2 OS spheroids = assay: Spheroid (3D) viability, CellTiter-Glo; assay type: cell-based, human; details: Homo sapiens, U2OS
HsHaspin = biological target: T5, HsHaspin (Homo sapiens, UniProt Q8TF76); assay: Recombinant Haspin kinase assay ([γ-33P]ATP, 15 µM ATP; some values ADP-Glo); assay type: biochemical; details: average selectivity index over the protein kinases tested vs Haspin
T5 construct: aa470-798; made in house; host or cells: E. coli
T5 sequence (Q8TF76 470-798): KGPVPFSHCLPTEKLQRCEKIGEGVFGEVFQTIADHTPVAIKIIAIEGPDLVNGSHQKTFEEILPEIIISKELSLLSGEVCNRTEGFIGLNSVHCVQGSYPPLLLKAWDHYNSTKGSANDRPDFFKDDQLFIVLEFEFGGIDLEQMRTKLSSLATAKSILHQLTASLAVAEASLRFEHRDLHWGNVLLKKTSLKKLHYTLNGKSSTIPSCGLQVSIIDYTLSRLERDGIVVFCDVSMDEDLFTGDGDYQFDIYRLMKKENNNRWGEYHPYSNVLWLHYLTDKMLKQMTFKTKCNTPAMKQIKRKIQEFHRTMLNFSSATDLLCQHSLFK
Procedure: as §3
(§5) A, HsCdk9/Cyclin T). Native SscCK1δ /ε and SscGSK3α/β were purified from pig brain whereas HsPlk1, HsCdk1 and HsAurora B were purchased from ProQinase and SignalChem respectively. Kinase assays were performed in […]
(§6) mCi/ml; PerkinElmer) in a final volume of 30 µl as previously reported 51. After 30 min incubation at 30°C, the reaction mix was spotted onto GE healthcare P81 phosphocellulose paper using a FilterMate Harvester (PerkinElmer), and the filter was extensively washed with a 1% phosphoric acid solution. The wet filter-bound radioactivity was determined in the presence of 20 µl scintillation fluid (GE healthcare) with a TopCount® Scintillation and Luminescence Counter (PerkinElmer). IC50 values were calculated from dose-response curves […]
as §4

U-2 OS cells [2] = assay: Scratch wound cell migration assay (IncuCyte); assay type: cell-based, human; details: 0.6 µM, 0.5% FBS, normalised against DMSO control (100%)
[3] = test system: Haspin activity (H3T3ph) in U-2 OS cells; assay: In-cell Haspin activity, H3T3ph immunofluorescence; assay type: cell-based, human; details: 24 h; for H3T3ph signal remaining in prometaphase cells (% of ctrl): 0.5 µM; for inhibition at 0.05 µM: Homo sapiens, U2OS, read-out: inhibition of cellular Haspin activity
HBL100 = assay: Cell viability, monolayer (2D), MTS assay; assay type: cell-based; details: Homo sapiens, HBL-100, 48 h
HsCdk2/Cyclin A = biological target: T6, HsCdk2/Cyclin A (Homo sapiens, UniProt P24941); assay: CDK2 kinase assay; assay type: biochemical
T6 construct: made in house; host or cells: baculovirus/Sf9 cells
Procedure: as §3, §5, §6, §4

HCT116 spheroids = assay: Spheroid (3D) viability, CellTiter-Glo; assay type: cell-based, human; details: 5 µM, Figure 4(A)
melanoma cancer lines = test system: melanoma cancer lines; parameters: method as in PMID 28928884; details: alone or in combination with Trametinib; cited from earlier work
HCT-116 cells xenografts = test system: HCT-116 cells xenografts; parameters: method as in PMID 21804608; details: nude mice xenografts of HCT-116 cells; cited from earlier work
HBL100 spheroids = assay: Spheroid (3D) viability, CellTiter-Glo; assay type: cell-based, human; details: 5 µM, Figure 4(A)
[4] = 48 h, 2 days, Figure 4(B), read-out: U-2 OS spheroid remaining viability

EC50 (SH-SY5Y): > 10 µM
IC50 (Haspin; 5 µM ATP, read-out: IC50 Haspin at 5 µM ATP): 0.006 µM
IC50 (Haspin; 240 µM ATP, read-out: IC50 Haspin at 240 µM ATP): 0.95 µM
IC50 (HsPLK1): > 10 µM
EC50 (HCT116): > 10 µM
Aurora B inhibition (in words) (HsAurora B): did not inhibit Aurora B kinase
SI CDK1/Haspin (HsCDK1; SI = IC50 CDK1/IC50 Haspin): 0.8
IC50 (HsCDK1; Table 4, read-out: IC50 HsCDK1): 0.052 µM
average SI (HsHaspin): 24.2
IC50 (HsCdk2/Cyclin A; read-out: IC50 CDK2): 0.11 µM
SMILES: CC[C@H](CO)Nc1ccc2ncc(-c3ccc4[nH]ncc4c3)n2n1 [Compound 12]
EC50 (U-2 OS): > 10 µM
EC50 (RPE-1): 6.8 µM
cells in G2/M phase (% of cell total population) (U-2 OS cells [1]; 2.5 µM, 24 h, U-2 OS, DMSO control 12.8%): 29.9%
cells in S phase (% of cell total population) (U-2 OS cells [1]; 2.5 µM, 24 h, U-2 OS): 34.4%
viability at 5 µM (U-2 OS spheroids; [4]): 13.1%
viability at 1 µM (U-2 OS spheroids; 240 h, 1 µM, 10 days, Figure 4(B), read-out: U-2 OS spheroid remaining viability): 66%
viability at 2.5 µM (U-2 OS spheroids; 240 h, 2.5 µM, 10 days, Figure 4(B), read-out: U-2 OS spheroid remaining viability): 50%
normalised wound closure after 24 h (U-2 OS cells [2]): 88%
H3T3ph signal remaining in prometaphase cells (% of ctrl) [3]: 1.9%
inhibition at 0.05 µM [3]: > 80%
EC50 (HBL100): 6.6 µM

SMILES: CCCNc1ccc2ncc(-c3ccc4[nH]ncc4c3)n2n1 [Compound 5, reference compound]
EC50 (SH-SY5Y): > 10 µM
EC50 (U-2 OS): 5.1 µM
IC50 (HsPLK1): > 10 µM
EC50 (RPE-1): 3.8 µM
EC50 (HCT116): 9 µM
HCT116 spheroid viability (HCT116 spheroids; 48 h): without any significant effect
HCT116 spheroid viability (HCT116 spheroids; 10 days): remained mostly unresponsive
cells in S phase (% of cell total population) (U-2 OS cells [1]; 2.5 µM, 24 h, U-2 OS): 30.9%
cell cycle effect (in words) (U-2 OS cells [1]; Figure 2): Cell cycle arrest in G2/M
effect on cell viability and mobility of melanoma lines (melanoma cancer lines): affects also cell viability and mobility of several melanoma cancer lines
IC50 (HsCDK1): 0.029 µM
viability at 5 µM (U-2 OS spheroids; [4]): 9.7%
viability at 5 µM (U-2 OS spheroids; 240 h, 10 days, Figure 4(A), read-out: U-2 OS spheroid viability (% of DMSO control)): 1%
viability at 5 µM (U-2 OS spheroids; 48 h, Figure 4(A), read-out: U-2 OS spheroid viability (% of DMSO control)): 49%
H3T3ph signal remaining in prometaphase cells (% of ctrl) [3]: 2.5%
inhibition at 0.05 µM [3]: > 80%
effect on angiogenesis and tumour growth (HCT-116 cells xenografts): reduced angiogenesis and tumour growth
HBL-100 spheroid viability (% of DMSO control) (HBL100 spheroids; 48 h): without any significant effect
HBL100 spheroid viability (HBL100 spheroids; 10 days): remained mostly unresponsive
EC50 (HBL100): > 10 µM
IC50 (HsCdk2/Cyclin A): 0.091 µM
